Test results: patent publication US20170190671A1, “BIS(ARYL)CATECHOL DERIVATIVES AS HERBICIDES” (E I DU PONT DE NEMOURS AND COMPANY, priority 2014, published 2017)

Key:
Assay type in all cases: in vivo
[1] = test system: giant foxtail (Setaria faberii); test: Test A postemergence; details: Setaria faberi, post-emergence, 240 h, 0 to 100 scale, read-out: Plant response rating, Foxtail, Giant
Method in brief: (§1)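 Scoring: eye-based comparison with untreated controls, 0 for no effect through 100 for complete control, at about day 10. Treatments: directed soil spray preemergence; foliar spray postemergence on 2–10 cm plants at the one- to two-leaf stage. Medium: loam soil with sand.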

[2] = test system: Italian ryegrass (Lolium multiflorum); test: Test A postemergence; details: Lolium multiflorum, post-emergence, 240 h, 0 to 100 scale, read-out: Plant response rating, Ryegrass, Italian
Method in brief: as §1

[3] = test system: blackgrass (Alopecurus myosuroides); test: Test A postemergence; details: Alopecurus myosuroides, post-emergence, 240 h, 0 to 100 scale, read-out: Plant response rating, Blackgrass
Method in brief: as §1

[4] = test system: barnyardgrass (Echinochloa crus-galli); test: Test A postemergence; details: Echinochloa crus-galli, post-emergence, 240 h, 0 to 100 scale, read-out: Plant response rating, Barnyardgrass
Method in brief: as §1

[5] = test system: corn (Zea mays); test: Test A postemergence; details: Zea mays, post-emergence, 240 h, 0 to 100 scale
Method in brief: as §1

[6] = test system: ragweed (common ragweed, Ambrosia elatior); test: Test A postemergence; details: Ambrosia artemisiifolia, post-emergence, 240 h, 0 to 100 scale, read-out: Plant response rating, Ragweed
Method in brief: as §1

[7] = test system: galium (catchweed bedstraw, Galium aparine); test: Test A postemergence; details: Galium, post-emergence, 240 h, 0 to 100 scale, read-out: Plant response rating, Galium
Method in brief: as §1

[8] = test system: wheat (Triticum aestivum); test: Test A postemergence; details: Triticum aestivum, post-emergence, 240 h, 0 to 100 scale, read-out: Plant response rating, Wheat
Method in brief: as §1

[9] = test system: pigweed (Amaranthus retroflexus); test: Test A postemergence; details: Amaranthus retroflexus, post-emergence, 240 h, 0 to 100 scale, read-out: Plant response rating, Pigweed
Method in brief: as §1

[10] = test system: kochia (Kochia scoparia); test: Test A postemergence; details: Bassia scoparia, post-emergence, 240 h, 0 to 100 scale, read-out: Plant response rating, Kochia
Method in brief: as §1

[11] = test system: waterhemp (common waterhemp, Amaranthus rudis); test: Test C postemergence; details: Amaranthus tuberculatus, post-emergence, Postemergence, scale 0 to 100, read-out: Plant response rating, Waterhemp
Method in brief: (§2)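 Seeds sown in a loam soil and sand blend were treated preemergence; plants in peat-moss/vermiculite medium were sprayed at the 1- to 4-leaf stage (2-18 cm). Chemicals were in a non-phytotoxic surfactant-containing solvent. After 13 to 15 days in a greenhouse, injury was visually rated against controls on a 0-100 scale.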

[12] = test system: pigweed (Amaranthus retroflexus); test: Test C postemergence; details: Amaranthus retroflexus, post-emergence, 336 h, Postemergence, scale 0 to 100, read-out: Plant response rating, Pigweed
Method in brief: as §2

[13] = test system: sedge, umbrella (small-flower umbrella sedge, Cyperus difformis); test: Test B flooded paddy; details: Cyperus difformis, 336 h; 250 g ai/ha, Flood, 13 to 15 days, scale 0 (no effect) to 100 (complete control); read-out: Plant response rating, Sedge, Umbrella
Method in brief: (§3)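 Visual injury ratings against untreated controls, taken 13 to 15 days after compound was added to paddy water standing 3 cm above the soil.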

[14] = test system: barnyardgrass (Echinochloa crus-galli); test: Test B flooded paddy; details: Echinochloa crus-galli, 336 h; 250 g ai/ha, Flood, 13 to 15 days, scale 0 (no effect) to 100 (complete control); read-out: Plant response rating, Barnyardgrass
Method in brief: as §3

[15] = test system: ducksalad (Heteranthera limosa); test: Test B flooded paddy; details: Heteranthera limosa, 336 h; 250 g ai/ha, Flood, 13 to 15 days, scale 0 (no effect) to 100 (complete control); read-out: Plant response rating, Ducksalad
Method in brief: as §3

[16] = test system: rice (Oryza sativa); test: Test B flooded paddy; details: Oryza sativa, 336 h; 250 g ai/ha, Flood, 13 to 15 days, scale 0 (no effect) to 100 (complete control); read-out: Plant response rating, Rice
Method in brief: as §3

[17] = test system: giant foxtail (Setaria faberii); test: Test A preemergence; details: Setaria faberi, pre-emergence, 240 h
Method in brief: as §1

[18] = test system: Italian ryegrass (Lolium multiflorum); test: Test A preemergence; details: Lolium multiflorum, pre-emergence, 240 h
Method in brief: as §1

[19] = test system: barnyardgrass (Echinochloa crus-galli); test: Test A preemergence; details: Echinochloa crus-galli, pre-emergence, 240 h
Method in brief: as §1

[20] = test system: ragweed (common ragweed, Ambrosia elatior); test: Test A preemergence; details: Ambrosia artemisiifolia, pre-emergence, 240 h
Method in brief: as §1

[21] = test system: pigweed (Amaranthus retroflexus); test: Test A preemergence; details: Amaranthus retroflexus, pre-emergence, 240 h
Method in brief: as §1

[22] = test system: kochia (Kochia scoparia); test: Test A preemergence; details: Bassia scoparia, pre-emergence, 240 h
Method in brief: as §1

FC(F)c1cccc(Oc2ncc(Cl)cn2)c1Oc1ncc(Cl)cn1 [Compound 46, 2,2′-[[3-(difluoromethyl)-1,2-phenylene]bis(oxy)]bis[5-chloropyrimidine]]
80%: pest or weed control at 250 g/ha [15] | pest or weed control at 500 g/ha ([18]; 500 g ai/ha, 0 to 100 scale, read-out: Plant response rating, Ryegrass, Italian)
60%: pest or weed control at 500 g/ha ([10]; 500 g ai/ha)
10%: plant injury at 250 g/ha [16]
30%: pest or weed control at 125 g/ha ([18]; 125 g ai/ha, 0 to 100 scale (0 no effect, 100 complete control), read-out: Ryegrass, Italian plant response rating)
5%: pest or weed control at 125 g/ha ([11]; 125 g ai/ha)
50%: plant injury at 125 g/ha ([8]; 125 g ai/ha) | pest or weed control at 31 g/ha ([11]; 31 g ai/ha)
100%: pest or weed control at 500 g/ha ([1]; 500 g ai/ha) | pest or weed control at 500 g/ha ([2]; 500 g ai/ha) | pest or weed control at 500 g/ha ([3]; 500 g ai/ha) | pest or weed control at 500 g/ha ([4]; 500 g ai/ha) | Corn plant response rating (crop injury, 0 = no effect, 100 = complete kill) at 500 g/ha ([5]; 500 g ai/ha) | pest or weed control at 125 g/ha ([6]; 125 g ai/ha) | pest or weed control at 500 g/ha ([6]; 500 g ai/ha) | pest or weed control at 125 g/ha ([7]; 125 g ai/ha) | pest or weed control at 500 g/ha ([7]; 500 g ai/ha) | plant injury at 500 g/ha ([8]; 500 g ai/ha) | pest or weed control at 125 g/ha ([9]; 125 g ai/ha) | pest or weed control at 500 g/ha ([9]; 500 g ai/ha) | pest or weed control at 125 g/ha ([10]; 125 g ai/ha) | pest or weed control at 125 g/ha ([17]; 125 g ai/ha, 0 to 100 scale (0 no effect, 100 complete control), read-out: Foxtail, Giant plant response rating) | pest or weed control at 500 g/ha ([17]; 500 g ai/ha, 0 to 100 scale, read-out: Plant response rating, Foxtail, Giant) | pest or weed control at 500 g/ha ([19]; 500 g ai/ha, 0 to 100 scale, read-out: Plant response rating, Barnyardgrass) | pest or weed control at 500 g/ha ([20]; 500 g ai/ha, 0 to 100 scale, read-out: Plant response rating, Ragweed) | pest or weed control at 125 g/ha ([21]; 125 g ai/ha, 0 to 100 scale (0 no effect, 100 complete control), read-out: Pigweed plant response rating) | pest or weed control at 500 g/ha ([21]; 500 g ai/ha, 0 to 100 scale, read-out: Plant response rating, Pigweed) | pest or weed control at 125 g/ha ([22]; 125 g ai/ha, 0 to 100 scale (0 no effect, 100 complete control), read-out: Kochia plant response rating) | pest or weed control at 500 g/ha ([22]; 500 g ai/ha, 0 to 100 scale, read-out: Plant response rating, Kochia)
65%: pest or weed control at 250 g/ha [13]
70%: pest or weed control at 62 g/ha ([11]; 62 g ai/ha) | pest or weed control at 31 g/ha ([12]; 31 g ai/ha) | pest or weed control at 62 g/ha ([12]; 62 g ai/ha)
90%: pest or weed control at 125 g/ha ([1]; 125 g ai/ha) | pest or weed control at 125 g/ha ([2]; 125 g ai/ha) | pest or weed control at 125 g/ha ([3]; 125 g ai/ha) | pest or weed control at 125 g/ha ([4]; 125 g ai/ha) | Corn plant response rating (crop injury, 0 = no effect, 100 = complete kill) at 125 g/ha ([5]; 125 g ai/ha) | pest or weed control at 125 g/ha ([19]; 125 g ai/ha, 0 to 100 scale (0 no effect, 100 complete control), read-out: Barnyardgrass plant response rating) | pest or weed control at 125 g/ha ([20]; 125 g ai/ha, 0 to 100 scale (0 no effect, 100 complete control), read-out: Ragweed plant response rating)
85%: pest or weed control at 125 g/ha ([12]; 125 g ai/ha)
0%: pest or weed control at 250 g/ha [14]
